For one experiment, the target named is JAK1 (Homo sapiens, UniProt P23458). The experiment can be described thus: JAK kinase inhibitor activity detection (ULight-JAK-1 substrate, Eu-labeled anti-phosphotyrosine antibody), JAK1. It is filed as biochemical. Particulars: JAK1 10 nM, substrate 50 nM, ATP 40 uM, 2 h room temperature. The method, then:
(§1) Activity Detection of Small Molecule Inhibitors of JAK Kinase
(§2) • (1) kinase reaction buffer • Prepare the kinase reaction buffer with the following components: 50 mM HEPES, pH 7.5, 1 mM EGTA, 10 mM MgCl2, 2 mM DTT, 0.01% Tween20 • (2) 1× detection buffer • To prepare detection buffer, dilute 10× detection buffer to 1× with deionized water 9:1 • (3) 4× kinase solution • Dilute JAK to 4× final concentration by JAK reaction buffer (JAK1: 40 nM, JAK2: 0.5 nM) • (4) 4× substrate solution • Dilute ULight™-JAK-1 (Tyr1023) substrate to 200 nM by kinase reaction buffer (final concentration: 50 nM) • (5) 4×ATP solution • Dilute ATP to 4× final concentration by kinase reaction buffer (JAK1: 160 μM, JAK2: 40 μM) • (6) 4× compound testing solution • DMSO dissolves the testing compound into 10 mM stock solution, then prepared to the desired concentration with 3-fold serial dilution, and 10 concentration points were set for each compound. Besides, the final concentration range of the testing compound is: 10 μM-0.5 nM • (7) 4× enzyme reaction termination liquid • 1× test buffer dissolves EDTA to 40 mM (EDTA final concentration: 10 mM) • (8) 4× antibody detection solution • 1× test buffer dilutes Eu labeled antibody (anti-phosphotyrosine (PT66)) to 8 nM (antibody final concentration: 2 nM) 2. Experimental Process • (1) Successively add 2.5 μL 4×JAK solution, and 2.5 μL of diluted 4× test compound solution in different concentrations to the 384 microporous plate, and set 2 multi-wells for each concentration. Meanwhile, set enzyme solution blank control group and negative control group (DMSO group). • (2) Shake the 384-hole plate, mix enzymes and compounds, centrifuge at 1000 rpm for 1 minute, and incubate at room temperature for 60 minutes • (3) Add 2.5 μL of 4× substrate solution to a 384-hole plate and centrifuge at 1000 rpm for 1 min • (4) Add 2.5 μL of 4×ATP solution to the 384 multi-well plate and centrifuge at 1000 rpm for 1 minute to initiate the enzyme reaction. • (5) JAK1 reacts at room temperature for 2 h, and JAK2 react at room temperature for 1 h. • (6) The final concentrations of each group of the JAK1 reaction are: JAK1: 10 nM, substrate: 50 nM, ATP: 40 uM, and the final concentration range of the test compound is: 10 μM-0.5 nM • The final concentrations of each group of the JAK2 reaction are: JAK2: 0.125 nM, substrate: 50 nM, ATP: 10 μM, and the final concentration range of test compounds is: 10 μM-0.5 nM • (7) After the enzyme reaction, add 5 μL of 4× enzyme reaction stop solution to each well of the 384-well plate with 1000 rpm, centrifuge for 1 minute, and incubate at room temperature for 5 min. • (8) Add 5 μL of 4× detection antibody solution to each well of a 384-well plate (final concentration of detection antibody is 2 nM) with 1000 rpm, centrifuge for 1 minute, and incubate at room temperature for 1 h. • (10) After antibody incubation, measure the signal value of each well on an Envision plate reader 3. Data Analysis • (1) Taking the enzyme solution blank control group as 100% inhibition rate and the negative control group (DMSO group) as 0% inhibition rate, calculate the percentage inhibition rate corresponding to each concentration of the tested compounds • (2) In GraphPad Prism software, nonlinear regression analysis is performed on the concentration logarithm of the test compound and the corresponding percentage inhibition rate to obtain the half-inhibitory concentration (IC50) of the test compound.

The next experiment addresses JAK2 (Homo sapiens, UniProt O60674). Put plainly: JAK kinase inhibitor activity detection (ULight-JAK-1 substrate, Eu-labeled anti-phosphotyrosine antibody), JAK2. Particulars: JAK2 0.125 nM, substrate 50 nM, ATP 10 μM, 1 h room temperature. Format: biochemical. The method, then: as §1, §2

Sequence of JAK2 (O60674 whole entry, species assumed): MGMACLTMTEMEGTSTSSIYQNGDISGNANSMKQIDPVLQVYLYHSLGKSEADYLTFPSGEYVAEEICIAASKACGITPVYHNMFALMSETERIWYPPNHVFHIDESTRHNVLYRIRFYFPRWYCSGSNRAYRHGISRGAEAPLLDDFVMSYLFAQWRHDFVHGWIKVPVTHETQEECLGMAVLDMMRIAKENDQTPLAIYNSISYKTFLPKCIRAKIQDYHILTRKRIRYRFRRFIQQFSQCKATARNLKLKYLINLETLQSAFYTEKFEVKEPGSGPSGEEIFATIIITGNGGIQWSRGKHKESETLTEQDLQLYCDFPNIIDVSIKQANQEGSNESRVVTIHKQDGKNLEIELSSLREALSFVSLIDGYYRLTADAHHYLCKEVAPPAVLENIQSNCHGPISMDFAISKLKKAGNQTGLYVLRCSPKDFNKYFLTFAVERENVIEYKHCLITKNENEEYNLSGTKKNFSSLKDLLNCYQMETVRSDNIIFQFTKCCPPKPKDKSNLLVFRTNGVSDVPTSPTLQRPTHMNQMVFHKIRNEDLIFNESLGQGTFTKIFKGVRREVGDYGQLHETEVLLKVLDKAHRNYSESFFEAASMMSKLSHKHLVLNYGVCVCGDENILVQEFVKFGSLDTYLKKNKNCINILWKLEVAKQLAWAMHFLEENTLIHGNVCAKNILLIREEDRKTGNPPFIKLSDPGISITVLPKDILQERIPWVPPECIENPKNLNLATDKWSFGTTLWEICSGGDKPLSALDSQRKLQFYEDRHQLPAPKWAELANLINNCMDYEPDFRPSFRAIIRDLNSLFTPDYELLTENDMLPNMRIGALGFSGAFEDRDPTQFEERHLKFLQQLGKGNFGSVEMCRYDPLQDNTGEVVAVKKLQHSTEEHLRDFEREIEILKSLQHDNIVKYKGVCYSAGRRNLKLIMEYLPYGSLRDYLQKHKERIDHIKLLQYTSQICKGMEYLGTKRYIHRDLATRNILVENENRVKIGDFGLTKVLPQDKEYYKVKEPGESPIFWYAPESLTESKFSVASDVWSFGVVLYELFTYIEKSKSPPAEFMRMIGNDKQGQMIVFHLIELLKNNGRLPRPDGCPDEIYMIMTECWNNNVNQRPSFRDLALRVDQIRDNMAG
Sequence of JAK1 (P23458 whole entry, species assumed): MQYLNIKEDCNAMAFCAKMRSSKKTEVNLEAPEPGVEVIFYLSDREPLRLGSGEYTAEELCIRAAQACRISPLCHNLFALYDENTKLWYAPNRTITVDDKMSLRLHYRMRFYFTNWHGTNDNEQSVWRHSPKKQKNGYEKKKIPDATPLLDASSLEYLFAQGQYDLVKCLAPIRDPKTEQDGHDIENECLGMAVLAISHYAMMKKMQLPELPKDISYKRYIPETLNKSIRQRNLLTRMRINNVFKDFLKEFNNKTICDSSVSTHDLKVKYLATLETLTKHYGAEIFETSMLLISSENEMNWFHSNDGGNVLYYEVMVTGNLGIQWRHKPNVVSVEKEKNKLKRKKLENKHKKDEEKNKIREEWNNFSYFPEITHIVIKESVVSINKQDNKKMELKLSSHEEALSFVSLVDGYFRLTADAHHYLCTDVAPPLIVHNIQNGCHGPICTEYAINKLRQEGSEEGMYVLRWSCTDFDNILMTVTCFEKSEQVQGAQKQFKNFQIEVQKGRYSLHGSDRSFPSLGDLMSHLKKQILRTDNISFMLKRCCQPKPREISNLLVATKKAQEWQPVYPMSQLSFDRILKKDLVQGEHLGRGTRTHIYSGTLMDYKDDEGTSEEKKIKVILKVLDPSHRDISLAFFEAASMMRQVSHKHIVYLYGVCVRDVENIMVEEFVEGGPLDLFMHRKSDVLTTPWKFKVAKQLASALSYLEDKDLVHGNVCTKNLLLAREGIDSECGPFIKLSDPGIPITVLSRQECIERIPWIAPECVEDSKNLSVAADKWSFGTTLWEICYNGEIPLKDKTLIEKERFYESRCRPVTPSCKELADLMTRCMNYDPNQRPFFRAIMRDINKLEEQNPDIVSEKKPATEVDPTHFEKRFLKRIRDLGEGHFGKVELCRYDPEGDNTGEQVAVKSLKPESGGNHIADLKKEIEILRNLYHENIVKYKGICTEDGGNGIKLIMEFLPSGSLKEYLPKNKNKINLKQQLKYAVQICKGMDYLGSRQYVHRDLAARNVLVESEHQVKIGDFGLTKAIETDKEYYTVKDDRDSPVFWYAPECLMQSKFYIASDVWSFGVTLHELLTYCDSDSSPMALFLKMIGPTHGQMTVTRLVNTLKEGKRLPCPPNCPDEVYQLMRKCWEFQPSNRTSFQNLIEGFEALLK

In general, IC50 refers to the concentration that inhibits the measured activity by half. For the molecule `N#CC1CCN(n2cnc3cnc4[nH]ccc4c32)CC1` [Example 1, 1-(imidazo[4,5-d]pyrrolo[2,3-b]pyridine-1(6H)-yl)piperidine-4-carbonitrile], the IC50 on JAK1 stood at 23.8 nM; on JAK2 it was 70.9 nM.
Taken in the same sequence, the figures for `N#CCC1CCN(n2cnc3cnc4[nH]ccc4c32)CC1` [Example 2, 2-(1-(imidazo[4,5-d]pyrrolo[2,3-b]pyridine-1(6H)-yl)piperidin-4-yl)acetonitrile] were 0.28 nM and 1.7 nM.
Taken in the same sequence, the figures for `Cc1nc2cnc3[nH]ccc3c2n1N1CCC(CC#N)CC1` [Example 3, 2-(1-(methylimidazo[4,5-d]pyrrolo[2,3-b]pyridine-1(6H)-yl)piperidin-4-yl)acetonitrile] were 0.17 nM and 0.28 nM.
For `CCc1nc2cnc3[nH]ccc3c2n1N1CCC(CC#N)CC1` [Example 4, 2-(1-(ethylimidazo[4,5-d]pyrrolo[2,3-b]pyridine-1(6H)-yl)piperidin-4-yl)acetonitrile] the same measures were 0.47 nM and 0.95 nM.
With `N#CCC1CCN(n2c(CO)nc3cnc4[nH]ccc4c32)CC1` [Example 5, 2-(1-(2-(hydroxymethyl)imidazo[4,5-d]pyrrolo[2,3-b]pyridine-1(6H)-yl)piperidin-4-yl)acetonitrile], the concentration for half-maximal inhibition (IC50) against JAK1 worked out at 0.28 nM; on JAK2, 1.45 nM.
Taken in the same sequence, the figures for `N#CCC1CCN(n2c(CCO)nc3cnc4[nH]ccc4c32)CC1` [Example 6, 2-(1-(2-(2-hydroxyethyl)imidazo[4,5-d]pyrrolo[2,3-b]pyridine-1(6H)-yl)piperidin-4-yl)acetonitrile] were 0.66 nM and 3.89 nM.
Taken in the same sequence, the figures for `C[C@@H](O)c1nc2cnc3[nH]ccc3c2n1N1CCC(CC#N)CC1` [Example 7, (R)-2-(1-(2-(1-hydroxyethyl)imidazo[4,5-d]pyrrolo[2,3-b]pyridine-1(6H)-yl)piperidin-4-yl)acetonitrile] were 0.08 nM and 4 nM.
For `C[C@H](O)c1nc2cnc3[nH]ccc3c2n1N1CCC(CC#N)CC1` [Example 8, (S)-2-(1-(2-(1-hydroxyethyl)imidazo[4,5-d]pyrrolo[2,3-b]pyridine-1(6H)-yl)piperidin-4-yl)acetonitrile] the same measures were 1.5 nM and 5 nM.
With `N#CCC1CCN(n2c(N)nc3cnc4[nH]ccc4c32)CC1` [Example 9, 2-(1-(2-aminoimidazo[4,5-d]pyrrolo[2,3-b]pyridine-1(6H)-yl)piperidin-4-yl)acetonitrile], the values for the IC50 at JAK1 and against JAK2 were 0.14 nM and 0.7 nM, respectively.
For `CS(=O)(=O)NCc1nc2cnc3[nH]ccc3c2n1N1CCC(CC#N)CC1` [Example 10, N-((1-(4-(cyanomethyl)piperidin-1-yl)-1,6-dihydroimidazole[4,5-d]pyrrolo[2,3-b]pyridine-2-yl)methyl)methanesulfonamide] the same measures were 0.8 nM and 6.1 nM.
Taken in the same sequence, the figures for `N#CCCC1CCN(n2cnc3cnc4[nH]ccc4c32)CC1` [Example 11] were 0.57 nM and 2.98 nM.
Taken in the same sequence, the figures for `N#CC1CC12CCN(n1cnc3cnc4[nH]ccc4c31)CC2` (stereo not shown) [Example 12, 6-(imidazo[4,5-d]pyrrolo[2,3-b]pyridine-1(6H)-yl)-6-azaspiro[2.5]octane-1-carbonitrile] were 1.77 nM and 3.28 nM.
In the case of `C[C@@H](O)c1nc2cnc3[nH]ccc3c2n1N1CCC2(CC1)CC2C#N` (stereo partly drawn) [Example 13, 6-(2-((R)-1-hydroxyethyl)imidazo[4,5-d]pyrrolo[2,3-b]pyridine-1(6H)-yl)-6-azaspiro[2.5]octane-1-carbonitrile], the IC50 came to 16 nM against JAK1 and 56.7 nM against JAK2.
Taken in the same sequence, the figures for `CC(C)(C#N)C1CCN(n2cnc3cnc4[nH]ccc4c32)CC1` [Example 14, 2-(1-(imidazo[4,5-d]pyrrolo[2,3-b]pyridine-1(6H)-yl)piperidine-4-yl)-2-methyl propionitrile] were 13.5 nM and 7.5 nM.
In the case of `C[C@@H](O)c1nc2cnc3[nH]ccc3c2n1N1CCC(C(C)(C)C#N)CC1` [Example 15, (R)-2-(1-(2-(1-hydroxyethyl)imidazo[4,5-d]pyrrolo[2,3-b]pyridine-1(6H)-yl)piperidine-4-yl)-2-methyl propionitrile], the IC50 against JAK1 was 5.14 nM; at JAK2, 16.1 nM.
Taken in the same sequence, the figures for `N#CC=C1CCN(n2cnc3cnc4[nH]ccc4c32)CC1` [Example 16, 2-(1-(imidazo[4,5-d]pyrrolo[2,3-b]pyridin-1(6H)-yl)piperidin-4-ylidene)acetonitrile] were 1.31 nM and 16.1 nM.
For `CC1(CC#N)CCN(n2cnc3cnc4[nH]ccc4c32)CC1` [Example 17, 2-(1-(imidazo[4,5-d]pyrrolo[2,3-b]pyridine-1(6H)-yl)-4-methylpiperidine-4-yl)acetonitrile] the same measures were 2 nM and 1.2 nM.
As to `C[C@@H](O)c1nc2cnc3[nH]ccc3c2n1N1CCC(C)(CC#N)CC1` [Example 18, (R)-2-(1-(2-(1-hydroxyethyl)imidazo[4,5-d]pyrrolo[2,3-b]pyridine-1(6H)-yl)-4-methylpiperidine-4-yl)acetonitrile], the IC50 on JAK1 was 6.31 nM; on JAK2 it was 13.8 nM.
Taken in the same sequence, the figures for `N#CCC1(O)CCN(n2cnc3cnc4[nH]ccc4c32)CC1` [Example 19, 2-(4-hydroxy-1-(imidazo[4,5-d]pyrrolo[2,3-b]pyridine-1(6H)-yl)-piperidine-4-yl)acetonitrile] were 2.37 nM and 6.01 nM.
For `N#CC=C1CC2CCC(C1)N2n1cnc2cnc3[nH]ccc3c21` [Example 20, 2-(8-(imidazo[4,5-d]pyrrolo[2,3-b]pyridin-1(6H)-yl)-8-azabicyclo[3.2.1]octan-3-ylidene)acetonitrile] the same measures were 4.3 nM and 1.9 nM.
Consider `N#CCC1CC2CCC(C1)N2n1cnc2cnc3[nH]ccc3c21` (stereo not shown) [Example 21, 2-(8-(imidazo[4,5-d]pyrrolo[2,3-b]pyridin-1(6H)-yl)-8-azabicyclo[3.2.1]octan-3-yl)acetonitrile], for which the IC50 is 0.92 nM on JAK1 and 4.77 nM on JAK2.
Consider `C[C@@H](O)c1nc2cnc3[nH]ccc3c2n1N1C2CCC1CC(=CC#N)C2` [Example 22, 2-(8-(2-((R)-1-hydroxyethyl)imidazo[4,5-d]pyrrolo[2,3-b]pyridin-1(6H)-yl)-8-azabicyclo[3.2.1]octan-3-ylidene)acetonitrile], for which the IC50 at JAK1 was determined as 1.6 nM; against JAK2, 4.04 nM.
Taken in the same sequence, the figures for `C[C@@H](O)c1nc2cnc3[nH]ccc3c2n1N1C2CCC1CC(CC#N)C2` (stereo partly drawn) [Example 23, 2-(8-(2-((R)-1-hydroxyethyl)imidazo[4,5-d]pyrrolo[2,3-b]pyridin-1(6H)-yl)-8-azabicyclo[3.2.1]octan-3-yl)acetonitrile] were 2.71 nM and 6.07 nM.
For `N#CCN1CCN(n2cnc3cnc4[nH]ccc4c32)CC1` [Example 24, 3-(4-(imidazo[4,5-d]pyrrolo[2,3-b]pyridin-1(6H)-yl)piperazin-1-yl)acetonitrile] the same measures were 7.72 nM and 46.6 nM.
Taken in the same sequence, the figures for `N#CCCN1CCN(n2cnc3cnc4[nH]ccc4c32)CC1` [Example 25, 3-(4-(imidazo[4,5-d]pyrrolo[2,3-b]pyridin-1(6H)-yl)piperazin-1-yl)propanenitrile] were 5.2 nM and 5.3 nM.
Take `N#CCC(=O)N1CCN(n2cnc3cnc4[nH]ccc4c32)CC1` [Example 26, 3-(4-(imidazo[4,5-d]pyrrorolo[2,3-b]pyridin-1(6H)-yl)piperazin-1-yl)oxypropionitrile]: the IC50 against JAK1 worked out at 41.7 nM; against JAK2 it was 151 nM.
